In EP4818177A1, “TRICYCLIC DERIVATIVE INHIBITOR, AND PREPARATION METHOD AND USE THEREFOR” (Shanghai Hansoh Biomedical Co., Ltd., priority 2023, dated 2025) one finds ΔTm, Selectivity and IC50 data, which are given here for 8 molecules.

By ΔTm is commonly meant the change in melting temperature against a reference sample. Broadly, the IC50 is the concentration that gives 50% inhibition.

In assay [1] the target is T1, PRMT5/MEP50-MTA protein complex (Homo sapiens, UniProt O14744).
T1 construct: purchased Viva Biotech
Description: Thermal shift assay: change in melting temperature of the PRMT5/MEP50-MTA protein complex. It counts as binding. The following applies: compound 8 µM, PRMT5/MEP50 2 µM, MTA 2 µM; Tm minus DMSO vehicle control. The source says:
Test Example 1: Determination of the ability of the compounds of the present invention to improve the thermal stability (melting temperature) of the PRMT5/MEP50-MTA protein complex.
1. Experimental objective: The objective of this test example is to determine the ability of the compound to improve the thermal stability of the PRMT5/MEP50-MTA protein complex, resulting in an increase in the protein melting temperature. 2. Experimental instruments: Quantitative PCR instrument (Quantstudio6 Flex) was purchased from Life Technologies; pipettes were purchased from Eppendorf or Rainin. 3. Experimental reagents and consumables: PRMT5/MEP50 protein was prepared by Viva Biotech; HEPES was purchased from Thermo Fisher Scientific (Cat. No. 15630080); DTT was purchased from Sigma (Cat. No. 43816-10ml); sodium chloride was purchased from Invitrogen (Cat. No. AM9760G); Protein Thermal Shift™ Dye Kit was purchased from Thermo Fisher Scientific (Cat. No. 4461146); methylthioadenosine (MTA) was purchased from Sigma (Cat. No. D5011). 4. Experimental methods: In this experiment, the thermal shift method was used to measure the change in the melting temperature (Tm) of the PRMT5/MEP50-MTA protein complex before and after compound binding, thereby characterising the ability of the compound to improve the thermal stability of the PRMT5/MEP50-MTA protein complex. A solution containing 50 mM HEPES, 10 mM DTT, 2 µM MTA, SYPRO Orange and 250 mM NaCl was prepared as the experimental buffer. Human PRMT5/MEP50 protein was added to a final concentration of 2 µM, and the mixture was incubated at room temperature for 30 minutes. The above reaction mixture was aliquoted into 8-strip PCR tubes at 19.5 µL per tube. Then 0.5 µL of test compound or DMSO was added to each tube, providing a total reaction volume of 20 µL and a final compound concentration of 8 µM. 2.5% DMSO was set as the vehicle control. After incubation at room temperature for 10 minutes, the PCR tubes were placed in a PCR instrument, and the melt curve function was selected to measure the melting temperature of the PRMT5/MEP50-MTA protein complex in different treatment groups (heated from 25°C to 95°C, 0.03°C/s). 5. Experimental data processing method: The experimental data files from the PCR instrument were imported into the thermal shift software to obtain the melting temperature (Tm) for each treatment group.

Assay [2] relates to MTAP Knockout HCT116 cells. The assay can be described thus: Cell proliferation inhibition (CellTiter-Glo), MTAP knockout cells. It counts as cell-based. The following applies: for Selectivity: HCT116 versus MTAP Knockout HCT116; for IC50: Homo sapiens, HCT-116, MTAP Knockout HCT116 cells, 72-240 hours incubation, CellTiter-Glo. The source says:
(§1) Test Example 2: Determination of the inhibitory effect of the compounds of the present invention on the proliferation activity of HCT116 and MTAP Knockout HCT116 cells.
(§2) 1. Experimental objective: to determine the inhibitory effect of the compound on the proliferation activity of HCT116 wild-type and HCT116 MTAP knockout cells. 2. Experimental instruments: Centrifuge (Eppendorf 5810R); microplate reader (BioTek Synergy H1 or PerkinElmer Envision); pipette (Eppendorf or Rainin). 3. Experimental reagents: HCT116 and MTAP Knockout HCT116 cells were purchased from Nanjing Cobioer; Cell Titer-Glo was purchased from Promega (Cat. No. G7573); McCoy' 5A was purchased from Gibco (Cat. No. 12330031); FBS was purchased from Gibco (Cat. No. 10091148); PBS was purchased from Gibco (Cat. No. 10010023); trypsin was purchased from Gibco (Cat. No. 25200056); cell culture plates were purchased from Corning (Cat. No. 3610). 4. Experimental methods: HCT116 and MTAP Knockout HCT116 cells were cultured in McCoy'5A medium containing 10% FBS until an appropriate cell density was reached. The cells were then collected and adjusted to a suitable concentration using complete medium. The cell suspension was seeded into a 96-well plate at 90 µL per well and allowed to adhere overnight in a 37°C, 5% CO2 incubator. Compound solutions of various concentrations were prepared using DMSO and culture medium, with a vehicle control set. The compound solutions were added to the 96-well plate at 10 µL per well, and the plate was incubated in a 37°C, 5% CO2 incubator for an additional 72-240 hours. After incubation, CellTiter-Glo solution was added, and the mixture was mixed uniformly by shaking, followed by incubation in the dark for 10 to 30 minutes. Luminescence was measured using a Synergy H1 or Envision microplate reader. 5. Experimental data processing method: The inhibition rate was calculated using the luminescence signal values, and the concentrations along with the inhibition rates were subjected to non-linear regression curve fitting using Graphpad Prism software to obtain the IC50 values.

The next assay has as its system HCT116 wild-type cells. The assay can be described thus: Cell proliferation inhibition (CellTiter-Glo), wild-type cells. Conditions: Homo sapiens, HCT-116, HCT116 wild-type cells, 72-240 hours incubation. It counts as cell-based.
From the text: as §1, §2
Background: In ATP-based viability assays light output follows the ATP content of the culture.

T1 sequence (O14744 whole entry): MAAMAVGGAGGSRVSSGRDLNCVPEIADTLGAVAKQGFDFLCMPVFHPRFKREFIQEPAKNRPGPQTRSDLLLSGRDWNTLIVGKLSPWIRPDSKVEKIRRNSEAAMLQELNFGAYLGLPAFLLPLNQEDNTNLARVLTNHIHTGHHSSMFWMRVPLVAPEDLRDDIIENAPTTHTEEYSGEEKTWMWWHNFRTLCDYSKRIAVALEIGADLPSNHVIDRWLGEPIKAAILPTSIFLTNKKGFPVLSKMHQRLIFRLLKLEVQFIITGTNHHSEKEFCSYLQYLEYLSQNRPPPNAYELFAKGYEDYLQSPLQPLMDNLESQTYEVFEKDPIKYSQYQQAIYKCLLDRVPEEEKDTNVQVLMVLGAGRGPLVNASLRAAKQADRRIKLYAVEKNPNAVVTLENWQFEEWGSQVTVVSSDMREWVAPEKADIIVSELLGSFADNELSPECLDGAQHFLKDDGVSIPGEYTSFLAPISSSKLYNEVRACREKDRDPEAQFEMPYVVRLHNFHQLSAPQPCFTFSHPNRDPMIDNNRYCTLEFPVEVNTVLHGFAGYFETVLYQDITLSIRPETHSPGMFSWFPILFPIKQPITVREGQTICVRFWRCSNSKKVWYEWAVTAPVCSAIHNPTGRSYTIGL
T1 sequence (Q9BQA1 whole entry partner): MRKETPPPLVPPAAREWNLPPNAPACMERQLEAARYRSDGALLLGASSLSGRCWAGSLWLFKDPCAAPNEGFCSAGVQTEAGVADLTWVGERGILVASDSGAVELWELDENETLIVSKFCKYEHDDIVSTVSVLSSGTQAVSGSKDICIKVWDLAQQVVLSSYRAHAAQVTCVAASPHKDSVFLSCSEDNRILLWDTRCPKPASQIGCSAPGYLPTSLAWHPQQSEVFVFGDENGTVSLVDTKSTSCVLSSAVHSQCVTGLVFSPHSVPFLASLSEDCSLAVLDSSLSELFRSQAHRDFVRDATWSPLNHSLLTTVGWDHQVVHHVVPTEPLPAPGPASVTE

In the case of `Cc1cc2nc(N)c3cncn3c2cc1C(=O)N(C)C1COCc2c1ccn1c(C(F)(F)F)cnc21` (centres unmarked) [Example 62, 4-Amino-N,7-dimethyl-N-(3-(trifluoromethyl)-7,10-dihydro-8H-imidazo[1,2-a]pyrano[3,4-c]pyridin-7-yl)imidazo[1,5-a]quinoxaline-8-carboxamide], the shift in melting temperature (ΔTm) at 8 µM in assay [1] came out at 12.5 °C. In assay [2], the Selectivity worked out at 113 and the IC50 was determined as 7.2 nM. Moreover, the IC50 with HCT116 wild-type cells amounted to 808 nM.

On to `CN(C(=O)c1ccc2nc(N)c3cnn(C)c3c2c1)C1COCc2c1ccn1c(C(F)(F)F)cnc21` (centres unmarked) [Example 83, 4-Amino-N,1-dimethyl-N-(3-(trifluoromethyl)-7,10-dihydro-8H-imidazo[1,2-a]pyrano[3,4-c]pyridin-7-yl)-1H-pyrazolo[4,3-c]quinoline-8-carboxamide], for which, in assay [1], the ΔTm at 8 µM was 11.8 °C. For the same molecule, in assay [2], the Selectivity turned out to be 164 and the IC50 worked out at 4.8 nM. The 50% inhibitory concentration (IC50) in the assay on HCT116 wild-type cells is 790 nM.

`CCNN(C(=O)c1cc2c(cc1C)nc(N)c1cncn12)C1COCc2nc(C(F)(F)F)ccc21` (centres unmarked) [Example 277, 4-Amino-N'-ethyl-7-methyl-N-(2-(trifluoromethyl)-5,8-dihydro-6H-pyrano[3,4-b]pyridin-5-yl)imidazo[1,5-a]quinoxaline-8-carbohydrazide]: the ΔTm at 8 µM in assay [1] stood at 12.9 °C. In assay [2], the Selectivity amounted to 17. For the same molecule, the IC50 was 12 nM in assay [2] and 207 nM in the assay on HCT116 wild-type cells.

As for `CNN(C(=O)c1cc2c(cc1F)nc(N)c1cncn12)C1COCc2c1ccn1c(C(F)(F)F)cnc21` (centres unmarked) [Example 282, 4-Amino-7-fluoro-N'-methyl-N-(3-(trifluoromethyl)-7,10-dihydro-8H-imidazo[1,2-a]pyrano[3,4-c]pyridin-7-yl)imidazo[1,5-a]quinoxaline-8-carbohydrazide], in assay [1], the ΔTm at 8 µM was 12.3 °C. The Selectivity in assay [2] worked out at 145. The 50% inhibitory concentration (IC50) in assay [2] came out at 17 nM; in the assay on HCT116 wild-type cells it was 2450 nM.

For `CNN(C(=O)c1cc2c3c(c(N)nc2cc1C)COC3)C1COCc2nc(C(F)(F)F)ccc21` (centres unmarked) [Example 307, 4-Amino-7-methyl-N'-methyl-N-(2-trifluoromethyl-5,8-dihydro-6H-pyrano[3,4-b]pyridin-5-yl)-1,3-dihydrofuro[3,4-c]quinoline-8-carbohydrazide], in assay [1], the ΔTm at 8 µM is 12.7 °C. Besides, the Selectivity in assay [2] is 73. Further, the results for the IC50 (in assay [2]; in the assay on HCT116 wild-type cells) were 15 nM and 1060 nM, respectively.

On to `[2H]C([2H])([2H])NN(C(=O)c1ccc2nc(N)c3cnn(C)c3c2c1)C1([2H])COCc2nc(C(F)(F)F)ccc21` (centres unmarked) [Example 324, 4-Amino-N-[5-deuterio-2-(trifluoromethyl)-6,8-dihydropyrano[3,4-b]pyridin-5-yl]-1-methyl-N'-(trideuteriomethyl)pyrazolo[4,3-c]quinoline-8-hydrazide], for which the ΔTm at 8 µM in assay [1] was determined as 11.1 °C. For the same molecule, in assay [2], the Selectivity is reported as 155 and the IC50 is 15 nM. Also, the IC50 with HCT116 wild-type cells is 2380 nM.

For `[2H]C([2H])([2H])NN(C(=O)c1cc2c3c(c(N)nc2cn1)COC3)[C@@]1([2H])COCc2c1ccn1c(C(F)(F)F)cnc21` [Example 354-P1, (R)-4-amino-N'-(methyl-d3)-N-(3-(trifluoromethyl)-7,10-dihydro-8H-imidazo[1,2-a]pyrano[3,4-c]pyridin-7-yl-7-d)-1,3-dihydrofuro[3,4-c][1,7]naphthyridine-8-carbohydrazide], the ΔTm at 8 µM in assay [1] is 11.6 °C. In assay [2], the Selectivity was determined as 107 and the IC50 came to 23 nM. In the assay on HCT116 wild-type cells, the IC50 turned out to be 2470 nM.

Take `CNN(C(=O)c1ccc2nc(N)c3cnn(C)c3c2c1)C1COCc2nc(S(F)(F)(F)(F)F)ccc21` (centres unmarked) [Example 448]: the ΔTm at 8 µM in assay [1] is 12.3 °C. Besides, the Selectivity in assay [2] was found to be 44. The figures for the 50% inhibitory concentration (IC50) (in assay [2]; in the assay on HCT116 wild-type cells) were 7.8 nM and 344 nM, respectively.
